Source: patent publication US20190119200A1, “TERTIARY AMIDES AND METHOD OF USE” (AbbVie Inc., priority 2016, published 2019)

Legend:
Type in all cases: cell-based
[1] = test system: LPA-induced MCP-1 in NRK-49F cells; assay: LPA-induced MCP-1 AlphaLISA assay; details: Rattus norvegicus, final LPA 10 μM, 7 hours; for Emax: read-out: Maximum Inhibition
Procedure, shortened: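 NRK-49F rat fibroblasts, serum-starved overnight, pretreated with compound for 30 min at 37 °C (1% DMSO final), then stimulated with 10 μM LPA final. MCP-1 in the supernatant was measured by mouse/rat CCL2 AlphaLISA. IC50 values came from four-parameter logistic fits of the ratio data.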

LPAR1 [2] = target: T1, LPAR1 (Homo sapiens, UniProt Q92633); assay: LPAR1 FLIPR Assay; details: U2OS cells stably expressing LPAR1, LPA (EC80), Calcium 6 FLIPR dye; for Emax: read-out: Maximum Inhibition
T1 construct: host or cells: U2OS
T1 sequence (Q92633 whole entry): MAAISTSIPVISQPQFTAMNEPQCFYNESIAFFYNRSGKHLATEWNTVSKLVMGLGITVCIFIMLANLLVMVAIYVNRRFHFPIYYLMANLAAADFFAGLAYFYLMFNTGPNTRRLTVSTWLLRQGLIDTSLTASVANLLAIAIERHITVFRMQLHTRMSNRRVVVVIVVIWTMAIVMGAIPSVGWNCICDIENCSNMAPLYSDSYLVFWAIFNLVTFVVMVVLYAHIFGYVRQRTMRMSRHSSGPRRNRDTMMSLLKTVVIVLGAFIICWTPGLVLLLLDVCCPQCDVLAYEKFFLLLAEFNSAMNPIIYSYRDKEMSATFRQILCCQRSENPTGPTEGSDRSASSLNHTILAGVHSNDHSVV
Procedure, shortened: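 U2OS cells stably expressing LPAR1 were loaded with Calcium 6 dye for 2 h at 37° C, preincubated 3 min with compound (11-point 3-fold series), then stimulated with LPA at EC80. Fluorescence at 515-575 nm was recorded by FLIPR; IC50 came from four-parameter logistic fits of ratio data.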

LPAR1 [3] = target: T1, LPAR1; assay: IP-One HTRF Assay; details: U2OS cells stably expressing LPAR1, LPA stimulation, IP-One Tb HTRF kit; for Emax: read-out: Maximum Inhibition
Procedure, shortened: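 U2OS cells stably expressing LPAR1 were preincubated with compound (11-point 3-fold series from 2 mM DMSO stock) for 20 min at 37 °C, then stimulated with LPA for 2 h at 37 °C. IP1 accumulation was read by IP-One HTRF (665/615 nm ratio). IC50 came from four-parameter logistic Hill fits.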

Row | Compound | IC50 [1] | Emax [1] | IC50 (LPAR1 [2]) | Emax (LPAR1 [2]) | IC50 (LPAR1 [3]) | Emax (LPAR1 [3])
1 | COc1cc(C(=O)N(CCCCC(=O)O)CCCc2ccccc2)cc(OC)c1Br [Example 20, 5-[(4-bromo-3,5-dimethoxybenzoyl)(3-phenylpropyl)amino]pentanoic Acid] | 0.169 µM | 89% | 0.02 µM | 99% | 0.05 µM | 102%
2 | COc1cc(C(=O)N(CCCc2ccc(C)o2)CCSCC(=O)O)cc(OC)c1C [Example 132, [(2-{(3,5-dimethoxy-4-methylbenzoyl)[3-(5-methylfuran-2-yl)propyl]amino}ethyl)sulfanyl]acetic Acid] | 0.783 µM | 80% | 0.01 µM | 86% | 0.22 µM | 80%
3 | COc1cc(C(=O)N(CCCCC(=O)O)CCCc2ccccc2)cc(OC)c1C(F)(F)F [Example 37, 5-{[3,5-dimethoxy-4-(trifluoromethyl)benzoyl](3-phenylpropyl)amino}pentanoic Acid] | 0.479 µM | 81% | 0.032 µM | 96% | 0.069 µM | 79%
4 | COc1cc(C(=O)N(CCCc2ccccc2)CCOCC(=O)O)cc(OC)c1C [Example 6, {2-[(3,5-dimethoxy-4-methylbenzoyl)(3-phenylpropyl)amino]ethoxy}acetic Acid] | 0.723 µM | 80% | 0.011 µM | 94% | 0.183 µM | 97%
5 | COc1cc(C(=O)N(CCCCC(=O)O)CCCc2ccc(F)cc2)cc(OC)c1C [Example 34, 5-{(3,5-dimethoxy-4-methylbenzoyl)[3-(4-fluorophenyl)propyl]amino}pentanoic Acid] | 0.786 µM | 77% | 0.024 µM | 96% | 0.88 µM | 70%
6 | COc1cc(C(=O)N(CCCc2ccccc2)CCSCC(=O)O)cc(OC)c1C [Example 44, ({2-[(3,5-dimethoxy-4-methylbenzoyl)(3-phenylpropyl)amino]ethyl}sulfanyl)acetic Acid] | 0.41 µM | 91% | 0.008 µM | 96% | 0.223 µM | 80%
7 | COc1cc(C(=O)N(CCCc2ccccc2Cl)CCOCC(=O)O)cc(OC)c1C [Example 131, (2-{[3-(2-chlorophenyl)propyl](3,5-dimethoxy-4-methylbenzoyl)amino}ethoxy)acetic Acid] | 1.73 µM | 71% | 0.021 µM | 86% | 1.48 µM | 101%
8 | COc1cc(C(=O)N(CCCc2ccccc2)CCCC(C)(C)C(=O)O)cc(OC)c1C [Example 57, 5-[(3,5-dimethoxy-4-methylbenzoyl)(3-phenylpropyl)amino]-2,2-dimethylpentanoic Acid] | 0.039 µM | 97% | 0.035 µM | 100% | 0.062 µM | 95%
9 | COc1cc(C(=O)N(CCCCC(=O)O)CCCc2ccc(Cl)o2)cc(OC)c1C [Example 185, 5-{[3-(5-chlorofuran-2-yl)propyl](3,5-dimethoxy-4-methylbenzoyl)amino}pentanoic Acid] | 0.536 µM | 84% | 0.013 µM | 91% | 0.325 µM | 73%
10 | COc1cc(C(=O)N(CCCCC(=O)O)CCCc2ccccc2)cc(OC)c1C [Example 4, 5-[(3,5-dimethoxy-4-methylbenzoyl)(3-phenylpropyl)amino]pentanoic Acid] | 0.188 µM | 91% | 0.014 µM | 98% | 0.115 µM | 93%
11 | COc1cc(C(=O)N(CCCCC(=O)O)CCCc2ccccc2)cc(OC)c1C1CC1 [Example 35, 5-[(4-cyclopropyl-3,5-dimethoxybenzoyl)(3-phenylpropyl)amino]pentanoic Acid] | 0.107 µM | 92% | 0.032 µM | 98% | 0.059 µM | 94%
12 | COc1cc(C(=O)N(CCCc2ccccc2)CCSC(C)CC(=O)O)cc(OC)c1C (stereo not drawn) [Example 62, 3-({2-[(3,5-dimethoxy-4-methylbenzoyl)(3-phenylpropyl)amino]ethyl}sulfanyl)butanoic Acid] | 0.184 µM | 94% | 0.029 µM | 97% | 0.291 µM | 75%
